Reference: patent publication US20030099944A1, “Combination therapy involving drugs which target cellular proteins and drugs which target pathogen-encoded proteins” (priority 1998, published 2003)
Read-outs that look alike come from different tables or passages of the source.

Legend:
HSV-1 DNA replication = format: cell-based, herpes simplex virus type 1; settings: for fold viral DNA replication after release from PAA block: 50 μg/ml CHX alone
HSV-1 strain KOS [1] = assay: HSV-1 replication in HEL cells, standard plaque assay; format: cell-based, herpes simplex virus type 1; settings: 24 hours, 40 μM Rosco, 75 μM iso-Olo, 20 μM Lova, 5 ng/ml staurosporine, 70 μM PD98059
[2] = test system: ICP0 promoter (pWRICP0-CAT); format: cell-based, herpes simplex virus type 1; settings: for effect on virion-induced IE gene expression: cultures treated 24 hours prior to infection; for Fold-induction of CAT activity: mock-infected, value (SEM)
HEL cells [3] = assay: Cell-cycle progression by FACS analysis, HEL cells; format: cell-based
Vero cells = assay: Toxicity by microscopic observation, Vero cells
HSV ts A15 = format: cell-based, herpes simplex virus type 1
HSV-1 strain KOS [4] = format: cell-based, herpes simplex virus type 1; settings: passage 11, 100 μg/ml PAA
[5] = test system: HSV ts A15 transcripts and proteins; assay: E and L gene expression of ts A15 after shift-down (RNase protection, metabolic labeling); format: cell-based, herpes simplex virus type 1
HSV-1 strain KOS [6] = assay: HSV-1 replication in Vero cells, standard plaque assay; format: cell-based, herpes simplex virus type 1; settings: 0.1 to 10 PFU/cell, 100 μg/ml PAA or 100 μM Rosco, 24 hours
HEL cells [7] = test system: HEL cells
[8] = 3 hours pi, 100 μM Roscovitine, 10 μM Lovastatin, 250 μM K252a
[9] = 400 μg/ml PAA or 100 μM Rosco, 16 or 24 hours post release

## C[C@@H]1C[C@@H]([C@H](O)CC2CC(=O)NC(=O)C2)C(=O)[C@@H](C)C1 [CHX, Cycloheximide]
HSV-1 DNA replication; by 20 hours post release
  fold viral DNA replication after release from PAA block: approximately 12 fold
HSV-1 DNA replication; first 12 hours post-release
  fold viral DNA replication after release from PAA block: approximately 6 fold

## Cn1cnc2nc(NCCO)nc(NCc3ccccc3)c21 [Iso-Olo, IsoOlomoucine]
HSV-1 strain KOS [1]
  effect on HSV replication, single-cycle growth: no detectable effect

## COC(=O)[C@@]1(O)C[C@H]2O[C@]1(C)n1c3ccccc3c3c4c(c5c6ccccc6n2c5c31)C(=O)NC4 [K252a]
[2]
  effect on virion-induced IE gene expression: no effect
[2]; [8]
  Fold-induction of CAT activity: 0.8 (0.4) fold
[2]; 6 hours pi
  Fold-induction of CAT activity: 1.1 (0.3) fold
[2]; 9 hours pi
  Fold-induction of CAT activity: 1.0 (0.3) fold

## CC[C@H](C)C(=O)O[C@H]1C[C@@H](C)C=C2C=C[C@H](C)[C@H](CC[C@@H]3C[C@@H](O)CC(=O)O3)[C@H]21 [Lova, Lovastatin]
HEL cells [3]; 5 μM Lova
  cells blocked in G0/G1: ~90%
HEL cells [3]; 20 μM Lova
  cells arrested in G0/G1: about 90%
HSV-1 strain KOS [1]
  effect on HSV replication, single-cycle growth: failed to block HSV replication
[2]
  effect on virion-induced IE gene expression: no effect
[2]; [8]
  Fold-induction of CAT activity: 1.1 (0.6) fold
[2]; 6 hours pi
  Fold-induction of CAT activity: 1.0 (0.5) fold
[2]; 9 hours pi
  Fold-induction of CAT activity: 1.2 (0.6) fold

## Cn1cnc2c(NCc3ccccc3)nc(NCCO)nc21 [Olo, Olomoucine]
Vero cells
  concentration tolerated without evidence of toxicity: 200 µM

## O=C(O)CP(=O)(O)O [PAA, phosphonoacetic acid]
HSV-1 DNA replication
  fold viral DNA replication within 20 hours after release from PAA block: approximately 7 fold
HSV ts A15; 100 μg/ml PAA or 100 μM Rosco, 24 hours after shift-down
  level of viral DNA relative to cells infected and maintained at the permissive temperature: about 35%
HSV ts A15; 100 μg/ml PAA or 100 μM Rosco, by 24 hours after shift-down
  fold viral DNA replication: ~50 fold
HSV ts A15; 100 μg/ml PAA, first 15 hours after shift-down
  fold viral DNA replication: about 5 fold
HSV ts A15; 400 μg/ml PAA
  viral DNA replication during 24 hours after release: totally inhibited
HSV-1 strain KOS [4]
  titers in the presence of drug relative to titers in absence of drug: approximately 50%
[5]; 100 μg/ml PAA, 16 hours after shift-down
  accumulation of ICP8 and TK transcripts: did not significantly alter
[5]; [9]
  accumulation of L proteins: significant inhibition
  levels of E proteins, including ICP8 and TK: without a major effect
[5]; 400 μg/ml PAA or 100 μM Rosco, 16 hours after shift-down
  steady-state levels of ICP8 and TK transcripts: slight increase
HSV-1 strain KOS [6]
  inhibition of HSV replication as a function of multiplicity: efficiently at multiplicities of 1 PFU/cell or lower

## COc1cccc(-c2cc(=O)c3ccccc3o2)c1N [PD98059]
HSV-1 strain KOS [1]
  effect on HSV replication, single-cycle growth: did not inhibit HSV replication
HEL cells [7]
  concentrations with obvious cytotoxic effects: higher than 70 μM

## CN[C@@H]1C[C@H]2O[C@@](C)([C@@H]1OC)n1c3ccccc3c3c4c(c5c6ccccc6n2c5c31)C(=O)NC4 [Staurosporine]
HSV-1 strain KOS [1]
  effect on HSV replication, single-cycle growth: did not block HSV replication significantly
